Numbered stars: 1 amine (or outer) side, 2 acyl side, 3 side chain; on linkers, the order of the positions; unused ones are H or OH. Bridge positions count the residues as written; N and C are the ends. Side chains are listed from the residue outwards. Peptide text beside a SMILES is read from it. * marks the point of attachment. C20 diacid = O=C(O)CCCCCCCCCCCCCCCCCCC(=O)*; γGlu = O=C(O)[C@H](CCC(=O)[*:2])N[*:1]
Key:
Male Wistar rats = experiment: ASSAY (XII) effect from single subcutaneous administration on plasma calcium in rats; type: in vivo, rat; conditions: for Plasma calcium red (%) 0-12 h (maximal): single s.c., compared to vehicle; for suppression of plasma calcium level relative to vehicle: monitored over 24 hours
Procedure, shortened: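 Male Wistar rats (~250 g), groups of five, received a single subcutaneous dose at time 0. Blood drawn at −15 min, 1, 2, 4, 7, 12 and 24 h; total calcium measured in heparin plasma, reported as mean±SEM.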

Male Sprague-Dawley rats = experiment: ASSAY (XI) single subcutaneous administration, food intake monitored for 48 hours in rats; type: in vivo, rat; conditions: for Food intake red (%) 0-24 h / Food intake red (%) 24-48 h: single s.c., compared to vehicle; for food intake monitored over 48 hours: single subcutaneous administration, versus vehicle
Procedure, shortened: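 Male Sprague-Dawley rats from Taconic Europe, weighing about 250 g on the test day, were singly housed in an online food intake monitoring system (Ellegaard MBRose, Denmark). Before the study they were acclimatized to a reversed light cycle, with lights on from 10 PM to 10 AM. Each rat then received one subcutaneous dose of the analogue, and data are reported as mean±SEM.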

[1] = ASSAY (IX) pK, determination of T½ in mini-pig; type: in vivo; conditions: male, Göttingen, minipig, plasma, iv, 2 nmol/kg

Row | Compound | Plasma calcium red (%) 0-12 h (maximal) (Male Wistar rats; 30 nmol/kg) [%] | suppression of plasma calcium level relative to vehicle (Male Wistar rats; single subcutaneous administration, increasing doses (all doses tested)) | Food intake red (%) 0-24 h (Male Sprague-Dawley rats; 30 nmol/kg) [%] | Food intake red (%) 24-48 h (Male Sprague-Dawley rats; 30 nmol/kg) [%] | food intake monitored over 48 hours (Male Sprague-Dawley rats; 30 nmol/kg) | half-life [1] [h] | Plasma calcium red (%) 0-12 h (maximal) (Male Wistar rats; 3 nmol/kg) [%] | suppression of plasma calcium level relative to vehicle (Male Wistar rats; single subcutaneous 3 nmol/kg) | suppression of plasma calcium level relative to vehicle (Male Wistar rats; single subcutaneous 30 nmol/kg) | suppression of plasma calcium level relative to vehicle (Male Wistar rats; single subcutaneous 100 nmol/kg) | suppression of plasma calcium level relative to vehicle (Male Wistar rats; single subcutaneous 300 nmol/kg) | Food intake red (%) 0-24 h (Male Sprague-Dawley rats; 3 nmol/kg) [%] | Food intake red (%) 24-48 h (Male Sprague-Dawley rats; 3 nmol/kg) [%]
1 | CC[C@H](C)[C@H](NC(=O)[C@H](C)NC(=O)CNC(=O)[C@H](Cc1ccccc1)NC(=O)[C@H](CC(N)=O)NC(=O)[C@@H]1CCCN1C(=O)[C@H](CO)NC(=O)[C@H](CO)NC(=O)[C@H](Cc1c[nH]cn1)NC(=O)[C@H](CCCNC(=N)N)NC(=O)[C@H](CC(C)C)NC(=O)[C@H](Cc1ccccc1)NC(=O)[C@H](CC(N)=O)NC(=O)[C@H](C)NC(=O)[C@H](CC(C)C)NC(=O)[C@H](CCCNC(=N)N)NC(=O)[C@H](CCC(N)=O)NC(=O)[C@@H](NC(=O)[C@H](C)NC(=O)[C@@H]1CSSC[C@H](NC(=O)[C@@H](N)CCCCNC(=O)CC[C@H](NC(=O)CC[C@H](NC(=O)CCCCCCCCCCCCCCCCCCC(=O)O)C(=O)O)C(=O)O)C(=O)N[C@@H](CC(N)=O)C(=O)N[C@@H]([C@@H](C)O)C(=O)N[C@@H](C)C(=O)N[C@@H]([C@@H](C)O)C(=O)N1)[C@@H](C)O)C(=O)N1CCC[C@H]1C(=O)N[C@@H](CO)C(=O)N[C@@H](CO)C(=O)N[C@H](C(=O)N[C@@H](CC(N)=O)C(=O)N[C@H](C(=O)NCC(=O)N[C@@H](Cc1c[nH]cn1)C(=O)N[C@@H](CC(N)=O)C(=O)N[C@H](C(=O)N[C@@H](Cc1ccc(O)cc1)C(N)=O)[C@@H](C)O)C(C)C)[C@@H](C)O [Example 86] (H-K([γGlu-γGlu-C20 diacid])CNTATCATQRLANFLRHSSPNFGAIPSSTNVGHNTY-NH2; disulfide 2-7) | 0 | None of the doses trigger a notable suppression of the calcium level | 48 | 26 | reduces food intake | 104 |  |  |  |  |  |  | 
2 | CC[C@H](C)[C@H](NC(=O)[C@H](C)NC(=O)CNC(=O)[C@H](Cc1ccccc1)NC(=O)[C@H](CC(N)=O)NC(=O)[C@@H]1CCCN1C(=O)[C@H](CO)NC(=O)[C@H](CO)NC(=O)[C@H](Cc1c[nH]cn1)NC(=O)[C@H](CCCNC(=N)N)NC(=O)[C@H](CC(C)C)NC(=O)[C@H](Cc1ccccc1)NC(=O)[C@H](CCC(=O)O)NC(=O)[C@H](C)NC(=O)[C@H](CC(C)C)NC(=O)[C@H](CCCNC(=N)N)NC(=O)[C@H](CCC(N)=O)NC(=O)[C@@H](NC(=O)[C@H](C)NC(=O)[C@@H]1CSSC[C@H](NC(=O)[C@@H](N)CCCCNC(=O)CC[C@H](NC(=O)CC[C@H](NC(=O)CCCCCCCCCCCCCCCCCCC(=O)O)C(=O)O)C(=O)O)C(=O)N[C@@H](CC(N)=O)C(=O)N[C@@H]([C@@H](C)O)C(=O)N[C@@H](C)C(=O)N[C@@H]([C@@H](C)O)C(=O)N1)[C@@H](C)O)C(=O)N1CCC[C@H]1C(=O)N[C@@H](CO)C(=O)N[C@@H](CO)C(=O)N[C@H](C(=O)N[C@@H](CC(N)=O)C(=O)N[C@H](C(=O)NCC(=O)N1CCC[C@H]1C(=O)N[C@@H](CCC(=O)O)C(=O)N[C@H](C(=O)N[C@@H](Cc1ccc(O)cc1)C(N)=O)[C@@H](C)O)C(C)C)[C@@H](C)O [Example 106] (H-K([γGlu-γGlu-C20 diacid])CNTATCATQRLAEFLRHSSPNFGAIPSSTNVGPETY-NH2; disulfide 2-7; N-terminus assumed) | 6 |  | 63 | 69 | reduce food intake | 49 |  |  |  |  |  |  | 
3 | CC[C@H](C)[C@H](NC(=O)[C@H](C)NC(=O)CNC(=O)[C@H](Cc1ccccc1)NC(=O)[C@H](CC(N)=O)NC(=O)[C@@H]1CCCN1C(=O)[C@H](CO)NC(=O)[C@H](CO)NC(=O)[C@H](Cc1c[nH]cn1)NC(=O)[C@H](CCCNC(=N)N)NC(=O)[C@H](CC(C)C)NC(=O)[C@H](Cc1ccccc1)NC(=O)[C@H](CCC(=O)O)NC(=O)[C@H](C)NC(=O)[C@H](CC(C)C)NC(=O)[C@H](CCCNC(=N)N)NC(=O)[C@H](CCC(N)=O)NC(=O)[C@@H](NC(=O)[C@H](C)NC(=O)[C@@H]1CSSC[C@H](NC(=O)[C@@H](N)CCCCNC(=O)CC[C@H](NC(=O)CCCCCCCCCCCCCCCCCCC(=O)O)C(=O)O)C(=O)N[C@@H](CC(N)=O)C(=O)N[C@@H]([C@@H](C)O)C(=O)N[C@@H](C)C(=O)N[C@@H]([C@@H](C)O)C(=O)N1)[C@@H](C)O)C(=O)N1CCC[C@H]1C(=O)N[C@@H](CO)C(=O)N[C@@H](CO)C(=O)N[C@H](C(=O)N[C@@H](CC(N)=O)C(=O)N[C@H](C(=O)NCC(=O)N1CCC[C@H]1C(=O)N[C@@H](CCC(=O)O)C(=O)N[C@H](C(=O)N[C@@H](Cc1ccc(O)cc1)C(N)=O)[C@@H](C)O)C(C)C)[C@@H](C)O [Example 109] (H-K([γGlu-C20 diacid])CNTATCATQRLAEFLRHSSPNFGAIPSSTNVGPETY-NH2; disulfide 2-7 (inferred); N-terminus assumed) | 27 |  | 89 | 91 | reduces food intake | 95 | 7 | does not trigger a notable suppression of the calcium level | induces a minor suppression of the calcium level | induces a more pronounced suppression of the calcium level | induces a more pronounced suppression of the calcium level | 57 | 50
